The values below come from PubChem BioAssay AID179 (DTP/NCI, 2004).

In general, EC50 refers to the concentration that produces a half-maximal response. As usually defined, the IC50 is the concentration at which inhibition is half-maximal. A low value points to greater potency in that assay.

The test system of the assay is CEM cells HIV-1 protection, formazan growth assay. As to the kind of experiment: NCI AIDS Antiviral Assay. The note with it: for IC50: measured here: growth of uninfected CEM cells. The procedure, abridged: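 Soluble formazan readout of cell growth; CEM cells ± HIV-1; 5 drug concs. ≥50% protection → retest; ≥50% again = moderately active; reproducible 100% = confirmed active.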

Active and inactive are the calls of the source.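 Rule for the calls: active = compounds giving half or more protection of infected cells from virus-caused growth loss, again on retest; inactive = the rest.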

For the molecule `COP(C)(=O)C1=CCN(C(=O)OCC[Si](C)(C)C)CC1` (configuration not stated), the EC50 is greater than 200 µM and the IC50 was greater than 200 µM.
With `COc1ccc2c(c1O)-c1c(O)cccc1CCN(C)CC2`, the EC50 is greater than 200 µM and the IC50 was greater than 200 µM.
Take `COC(OC)C1OC(CO)C(n2ccc(N)nc2=O)C1O` (configuration not stated): the EC50 is greater than 200 µM and the IC50 was greater than 200 µM.
As to `CC1=N/C(=C\c2ccccc2C)C(=O)O1`, the EC50 is greater than 1230 µM and the IC50 is greater than 1230 µM.
For the molecule `S=C1CC(N2CCCC2)=Nc2ccccc2N1`, the EC50 is greater than 200 µM and the IC50 is greater than 200 µM.
`N#Cc1cnsc1`: the result was inactive.
Regarding `O=S(=O)(O)c1cc(O)c(N=NC2S(=O)(=O)OCCOS2(=O)=O)c2ccccc12`, the EC50 is greater than 200 µM and the IC50 came out at 77.6 µM.
With `Brc1ccc(-c2cnc3nc4[nH]c5ccccc5c4nn23)cc1`, the EC50 is greater than 200 µM and the IC50 came out at 123 µM.
As to `O=c1c2cc(-c3ccccc3)cnc2sn1-c1ccc(Oc2ccccc2)cc1`, the EC50 is 69.2 µM and the IC50 came to 110 µM.
For `O=S(=O)(Sc1ccc(Cl)cc1)c1ccc(Cl)cc1` the same measures were greater than 20 µM and 4.27 µM.
In the case of `O=C1Oc2cc(O)ccc2C2OCNCC12` (configuration not stated), the EC50 is greater than 200 µM and the IC50 is greater than 200 µM.
On to `Cn1c(COC(=O)NC2CCCCC2)c(COC(=O)NC2CCCCC2)c2ccc3cc(C=O)ccc3c21`, for which the EC50 is greater than 174 µM and the 50% inhibitory concentration (IC50) worked out at 2.19 µM.
For `S=C(Nc1ccccc1)Nc1ccccc1SC(/C=C/NNC1=NC(c2ccccc2)C(c2ccccc2)=NN1)c1ccccc1` (configuration not stated) the same measures were greater than 15.5 µM and greater than 15.5 µM.
With `Cc1nc(-n2nc(-c3ccccc3)cc2-c2ccccc2)sc1C(/C=C/c1ccc([N+](=O)[O-])cc1)=N/NC(N)=S`, the EC50 is greater than 33.1 µM and the IC50 was determined as 26.9 µM.
As for `O=C(c1ccccc1)C1(C(=O)c2ccccc2)/C(=N\O)C2CCC1C2` (configuration not stated), the EC50 is greater than 53.7 µM and the IC50 was 20.9 µM.
In the case of `CC(C)(O)/C1=C/C=C/CCCCCCCCCC1`, the EC50 is greater than 200 µM and the IC50 came to 34.7 µM.
Consider `Nc1ccc(S(=O)(=O)Nc2nccs2)cc1`, for which the EC50 was greater than 200 µM and the IC50 is greater than 200 µM.
`Cc1noc2c1CSC1=C2S(=O)(=O)N(C)c2ccccc21`: the EC50 was greater than 58.9 µM and the IC50 is greater than 58.9 µM.
For `c1ccc(-c2nc3sc(-c4ccccc4)nc3s2)cc1`, the EC50 was greater than 200 µM and the 50% inhibitory concentration (IC50) was greater than 200 µM.
Consider `O=C(O)CCC(NC(=O)c1ccc(Nc2cnc3ccc(C(F)(F)F)cc3n2)cc1)C(=O)O` (configuration not stated), for which the EC50 is greater than 200 µM and the IC50 was greater than 200 µM.
In the case of `CCN(CC)CCC(=O)Nc1ccc2c(c1)C(=O)c1ccc(NC(=O)CCN(CC)CC)cc1C2=O`, the EC50 is greater than 200 µM and the IC50 amounted to 3.39 µM.
In the case of `O=C(O)C12C=CC(C1)c1ccccc12` (configuration not stated), the EC50 is greater than 251 µM and the IC50 is greater than 251 µM.
For the molecule `O=C1c2ccccc2C(=O)N1/N=C\c1ccc(O)cc1`, the EC50 is greater than 135 µM and the IC50 is greater than 135 µM.
`COC1OC2=CCC3C(=O)NC(=O)C3C2[C@H](OCc2ccccc2)C1OCc1ccccc1` (some centres not stated): the outcome was inactive.
Consider `COc1ccc(N=Nc2c(N)nn3cc4c(nc23)CCC4)cc1`, for which the result was inactive.
For the molecule `COc1ccc(CNc2cc(=O)n(C)c(=O)[nH]2)cc1`, the EC50 is greater than 200 µM and the IC50 was greater than 200 µM.
Regarding `C/C(=N\N=C(N)N)C(CN(CC(C)C)CC(C)C)C(=O)Nc1ccc(C)cc1C` (configuration not stated), the EC50 is greater than 17.8 µM and the IC50 is greater than 17.8 µM.
As to `Cc1ccc(-n2cc(-c3ccc(Cl)cc3)c3c(NNC(=S)NCc4ccccc4)ncnc32)cc1`, the EC50 was greater than 200 µM and the IC50 was found to be 7.59 µM.
On to `O=C(/C(N=Nc1ccccc1)=C(\O)c1ccccc1)c1ccccc1`, for which the EC50 is greater than 21.9 µM and the IC50 is greater than 21.9 µM.
For `COc1cccc(/C=N/[N-]C(=O)c2ccncc2)c1[O-].[Mn+2].[OH3+]`, the EC50 was greater than 39.8 µM and the concentration for half-maximal inhibition (IC50) was determined as 6.61 µM.
For `C[C@H]1C(=O)CC[C@]2(C)CCC(C(C)(C)O)CC12O` (some centres not stated), the result was inactive.
As for `NNC(=O)c1n[nH]n(N)c1=S`, the EC50 is greater than 200 µM and the IC50 was greater than 200 µM.
Consider `CCSc1cc(=O)n(C)c(=O)n1C`, for which the outcome was inactive.
As to `CCN(c1ccccc1)[C@H]1C(=O)N(c2ccc([N+](=O)[O-])cc2)[C@H]1c1ccc(OC)cc1`, the outcome was inactive.
In the case of `CN(C)CC(C)(C)C(/C=C/c1ccccc1)=N\Nc1ccccc1`, the outcome was inactive.
For the molecule `C1CSCC2(COC2)CSCCSCC2(COC2)CS1`, the EC50 is greater than 14.8 µM and the IC50 was greater than 14.8 µM.
Regarding `Cc1cc(C)n(C(=C(C(Cl)=C(Cl)Cl)[N+](=O)[O-])n2nc(C)cc2C)n1`, the EC50 is greater than 200 µM and the IC50 turned out to be 4.37 µM.
In the case of `CCOC(=O)/C(O)=C1\C(=O)N(C)C(=O)C1c1ccc(OC)c(OC)c1` (configuration not stated), the outcome was inactive.
Turning to `CC(C)=CC1c2[nH]c3ccccc3c2CC(C(=O)O)N1C(=O)OC(C)(C)C(Cl)(Cl)Cl` (configuration not stated), the outcome was inactive.
As for `CNC(=S)Nc1sc2c(c1C#N)CCCC2`, the EC50 turned out to be 148 µM and the IC50 came out at 151 µM.
Consider `C/C(C=O)=C\c1ccc([N+](=O)[O-])cc1`, for which the EC50 is greater than 135 µM and the IC50 is 75.9 µM.
Turning to `CCOC(=O)Nc1[nH]cc(-c2ccccc2)c1C#N`, the EC50 was greater than 200 µM and the IC50 was greater than 200 µM.
`Clc1ccc(C2ON=C(c3ccccc3)N2C23CC4CC(CC(C4)C2)C3)cc1` (configuration not stated): the EC50 was greater than 200 µM and the IC50 is greater than 200 µM.
Molecule `O=C(O)c1c(Cl)c(Cl)c(Cl)c(Cl)c1-c1c2ccc(=O)cc-2oc2cc(O)ccc12` gave an EC50 of 6.46 µM and an IC50 of 29.5 µM.
For the molecule `Nc1cc(=O)[nH]c(=S)n1-c1ccc(Cl)cc1`, the EC50 is greater than 200 µM and the IC50 was greater than 200 µM.
Turning to `CN(C)C(=S)/N=C(\N)N(C)C`, the result was inactive.
As to `Cn1cnc(N)c1S(N)(=O)=O`, the EC50 was greater than 1410 µM and the IC50 was greater than 1410 µM.
With `O=C1c2ccccc2C(=O)c2c1cccc2-n1nnc2cc(Cl)c(Cl)cc21`, the result was inactive.
For `O=C1[C@H]2ON(c3ccccc3)C(c3ccc(Cl)cc3)[C@H]2C(=O)N1c1ccc(Cc2ccc(N3C(=O)[C@@H]4ON(c5ccccc5)C(c5ccc(Cl)cc5)[C@@H]4C3=O)cc2)cc1` (some centres not stated), the EC50 is greater than 6.31 µM and the IC50 is greater than 6.31 µM.
With `CC(=O)N/N=C1\NN(C(C)=O)C2(S1)C(=O)Nc1ccccc12` (configuration not stated), the EC50 is greater than 200 µM and the IC50 is greater than 200 µM.
Regarding `CS(=O)(=O)c1ccc(NNc2cc(=O)[nH]c(=O)[nH]2)cc1`, the EC50 was greater than 200 µM and the IC50 was determined as 70.8 µM.
For `NC(=O)SCC(=O)Nc1ccc2cccc3c2c1CC3`, the result was inactive.
Same read-out and setting: the entry for `CC(=O)OC1=C2CC3(C)OC(=O)CC(C)(C)C3=CC=C2C=C(C(C)C)C1=O` (configuration not stated) is “inactive”.
`Cc1ccc2c3nc4ccccc4c-3csc2c1`: the EC50 is 0.17 µM and the IC50 was 0.363 µM.
Turning to `CCP(=O)(CC)C(Cl)(Cl)C(=O)NC`, the EC50 is greater than 200 µM and the IC50 was greater than 200 µM.
For the molecule `COc1cc(O)c2c(=O)c(O)c(-c3ccc(O)c(OC)c3)oc2c1`, the EC50 was greater than 200 µM and the IC50 is greater than 200 µM.
Turning to `Cc1cccnc1/N=C/c1c(O)n(C)c(=O)[nH]c1=O`, the EC50 is greater than 200 µM and the IC50 was greater than 200 µM.
As for `Cc1ccc(NC(=O)CCC(=O)C(C#N)c2ccc(Cl)cc2)cc1C` (configuration not stated), the EC50 was greater than 708 µM and the IC50 is greater than 708 µM.
Take `COc1ccc(C2SCC(=O)N2c2ccc(-c3ccc(-n4c(-c5ccccc5)nc5ccccc5c4=O)cc3)cc2)cc1OC` (configuration not stated): the EC50 was greater than 200 µM and the IC50 worked out at 18.2 µM.
Regarding `C/C(C(=O)O)=C(\C)c1ccccc1`, the EC50 was greater than 200 µM and the concentration for half-maximal inhibition (IC50) is greater than 200 µM.
In the case of `O=C(C(=Cc1ccc(F)cc1)C(=O)c1ccccc1)c1ccccc1`, the EC50 is greater than 110 µM and the IC50 was greater than 100 µM.
On to `COP(=O)(N/N=C/C(=O)O)OC`, for which the EC50 was greater than 1260 µM and the IC50 was greater than 1260 µM.
Turning to `CCCCOC(=O)N[C@H]1CCc2cc(OC)c(OC)c(OC)c2-c2ccc(SC)c(=O)cc21`, the EC50 is greater than 0.2 µM and the IC50 was 0.00407 µM.
In the case of `COc1cc2c3c(c1)ncn3C(=O)C(c1ccccc1)S2` (configuration not stated), the EC50 was greater than 200 µM and the IC50 is 87.1 µM.
On to `OCC(O)c1cc(I)c(Oc2ccc(O)cc2)c(I)c1` (configuration not stated), for which the EC50 is greater than 200 µM and the IC50 was greater than 200 µM.
Take `Clc1ccc(Oc2ccc(N=Cc3ccc(Cl)cc3Cl)cc2Cl)cc1`: the EC50 was greater than 200 µM and the IC50 was 5.37 µM.
As for `COC(Cc1cc(C(O)(c2ccc(C(C)(C)C)cc2)c2cc(CC(OC)(c3cc(C(OC)(c4ccc(C(C)(C)C)cc4)c4ccc(C(C)(C)C)cc4)c(C)cc3C)c3cc(C(OC)(c4ccc(C(C)(C)C)cc4)c4ccc(C(C)(C)C)cc4)c(C)cc3C)c(C)cc2C)c(C)cc1C)(c1cc(C(OC)(c2ccc(C(C)(C)C)cc2)c2ccc(C(C)(C)C)cc2)c(C)cc1C)c1cc(C(OC)(c2ccc(C(C)(C)C)cc2)c2ccc(C(C)(C)C)cc2)c(C)cc1C`, the result was inactive.
`COc1cc(/C=C\C(=O)O)ccc1O`: the EC50 was greater than 200 µM and the IC50 was greater than 200 µM.
As for `O=[N+]([O-])c1ccc2nc3ccc([N+](=O)[O-])cn3c2c1`, the EC50 was greater than 200 µM and the IC50 was greater than 200 µM.
On to `CC1=Nc2nc(Cl)cn2C(=O)C1(Cl)Cl`, for which the EC50 was greater than 200 µM and the 50% inhibitory concentration (IC50) is 33.1 µM.
Consider `CCOC(=O)[C]1([Bi]([CH3])[CH3])N=NC(C(=O)OC)=C1C(=O)OC` (configuration not stated), for which the EC50 is 17.4 µM and the IC50 was 26.3 µM.
In the case of `CC1=NN(c2ccccc2)C(=O)C1N=Nc1ccc(S(=O)(=O)Nc2cc(C)nc(C)n2)cc1` (configuration not stated), the outcome was inactive.
Turning to `CCOC(=O)NC1CS(=O)(=O)CC1Cl` (configuration not stated), the EC50 is greater than 200 µM and the IC50 is greater than 200 µM.
For `COC(=O)C12C34C=CC5(CCC6(C=CC1(CC3)O6)C52C(=O)OC)O4` (configuration not stated), the outcome was inactive.
